# Measurements as given in US9334278B2, “Pyrrolo[2,3-B]pyrazines as SYK inhibitors” (Hoffmann-La Roche Inc., priority 2012, dated 2016).
# Like-named read-outs stand apart in the source and are kept apart here.
# How the values were obtained:
# [1] = tested on: Human B cell lymphoma cell line Ramos; assay: Ramos Calcium Influx FLIPR Assay; type: cell-based; conditions: Ramos cells, anti-human IgM 10 μg/mL stimulation, read-out: RAMOS_IC50
# Procedure: Ramos Calcium Influx FLIPR Assay
# Human B cell lymphoma cell line Ramos was cultivated in RPMI-1640 with 10% Fetal Bovine Serum (Invitrogen). Cells were seeded into assay plate and loaded with calcium dye by adding 30 μl of dye loading buffer according to manufacturer's instruction (Beckton Dickinson Calcium Kit, Cat#80500). The cells were then treated with serial diluted compounds for 30 min before stimulation. Baseline fluorescence was recorded for about 20 seconds followed by stimulation with mouse anti-human IgM (10 μg/mL, clone M2E6, Antibody Solutions Inc.) for Ramos cells, and record of the maximal fluorescent counts in each well. Maximal counts divided by baseline counts, defined as fold change from baseline for each well, was used for IC50 calculation.
# [2] = target: recombinant human SYK360-635 (Spleen Tyrosine Kinase) (Homo sapiens (Human), UniProt P43405); assay: SYK kinase assay (33P filtration, IC50 of SYK inhibition)
# Procedure: Determination of IC50 of Spleen Tyrosine Kinase (SYK) inhibition:
# SYK kinase assay is a standard kinase assay adapted to a 96 well plate format. This assay is performed in 96-well format for IC50 determination with 8 samples which represented 10 half log dilutions and a 40 μL reaction volume. The assay measures the incorporation of radiolabeled ^33P γATP into an N-terminally biotinylated peptide substrate, derived from naturally occurring phosphoacceptor consensus sequence (Biotin-11aa DY*E). Phosphorylated products were detected upon termination of reactions with EDTA and the addition of Streptavidin coated beads.
# BSA: Bovine Serum Albumin Fraction V, fatty acid free (Roche Diagnostics GmbH, Cat. No. 9100221) diluted to a final concentration of 0.1%
# Assay Dilution Buffer (ADB): 50 mM HEPES, 0.1 mM EGTA, 0.1 mM Na Vanadate, 0.1 mM (3-glycerophosphate, 10 mM MgCl2, 1 mM DTT, 0.1% BSA, pH 7.5
# Bead wash buffer: 10 g/L PBS (Phosphate buffered saline) with 2M NaCl+1% phosphoric acid.
# DMSO and the mixture was incubated for 10 min at RT.
# The kinase reaction was initiated by the addition of 10 μL 4× substrate cocktail containing the DYE peptide substrate [0 or 5 μM], ATP [20 μM] and ^33PγATP [2 μCi/r×n]. After incubation at 30° C. for 15 min, the reaction was terminated by the transfer of 25 μL of the reaction sample to a 96 well 0.65 μm Millipore MADVNOB membrane/plate containing 200 μL 5 mM EDTA and 20% Streptavidine coated beads in PBS.
# The unbound radionucleotides were washed under vacuum with 3×250 μL 2M NaCl; 2×250 μL 2M NaCl+1% phosphoric acid; 1×250 μL H2O. After the last wash membrane/plates were transferred to an adaptor plate, heat dried for 15 min at 60° C., and 50 μL scintillation cocktail was added to each well and 4 h later the amount of radioactivity was counted in a top counter.
# [3] = tested on: B cell CD69 up-regulation in human whole blood; assay: B Cell CD69 Up-Regulation Assay in Human Whole Blood; type: cell-based; conditions: anti-human IgM 50 μg/mL for 20 h, CD69hi CD20+ B cells
# Procedure: B Cell CD69 Up-Regulation Assay in Human Whole Blood
# Human Blood was collected from healthy volunteers into Vacutainers (BD Biosciences, San Jose, Calif.) containing sodium heparin. Test compound was suspended in DMSO and nine half-log serial dilutions were made. The concentration of […] in the assay was 0.5%. 100 μL whole blood was pre-incubated with compound for 30 min and then stimulated with goat F(ab′)2 anti-human IgM (50 μg/mL, Southern Biotech) for 20 h. At the end of the 20 hour incubation, samples were incubated with fluorochrome-conjugated antibodies, PE mouse anti-human CD20 and APC Mouse anti-human CD69 (BD Biosciences), for 30 minutes. Samples were then lysed with Lyse solution (BD) and washed with PBS containing 2% fetal bovine serum (FBS). Fluorescent signals were acquired on flow cytometer LSR II (BD) and data were analyzed by Flow Jo. The percentage of activated (CD69hi) B-cell lymphocytes (CD20+) were determined using un-stimulated (negative control) and stimulated (positive control) wells as reference guidelines. The percentage inhibition was calculated and an IC50 curve was constructed using GraphPad Prism software with sigmoidal curve fitting.
# [4] = read-out: ENZYME_FILTRATION_IC50, SYK 0.5 nM, ATP 20 μM, 33P filtration
Structure (SMILES),IC50 [1] [µM],"IC50 [2, 4] [µM]",IC50 [3] [µM],IC50 [2] [µM]
"Cc1nsc(Nc2cnc3[nH]cc(C(=O)NC(C)(C)C)c3n2)n1 [Compound I-31, N-tert-butyl-2-(3-methyl-1,2,4-thiadiazol-5-ylamino)-5H-pyrrolo[2,3-b]pyrazine-7-carboxamide]",0.251,0.0178,,
"Cc1ncc(Nc2cnc3[nH]cc(C(=O)NC(C)(C)C)c3n2)cn1 [Compound I-7, N-tert-butyl-2-(2-methylpyrimidin-5-ylamino)-5H-pyrrolo[2,3-b]pyrazine-7-carboxamide]",0.283,0.164,0.258,
"CN(C)C(=O)c1ccccc1Nc1cnc2[nH]cc(C(=O)NC(C)(C)C)c2n1 [Compound I-15, N-tert-butyl-2-(2-(dimethylcarbamoyl)phenylamino)-5H-pyrrolo[2,3-b]pyrazine-7-carboxamide]",,0.934,6.94,
"Cn1ncc2c1CCCN2c1cnc2[nH]cc(C(=O)NC(C)(C)C)c2n1 [Compound I-33, N-tert-butyl-2-(1-methyl-6,7-dihydro-1H-pyrazolo[4,3-b]pyridin-4(5H)-yl)-5H-pyrrolo[2,3-b]pyrazine-7-carboxamide]",0.791,0.167,1.46,
"Cc1cc(Nc2nc3c(C(=O)NC(C)(C)C)c[nH]c3nc2Cl)sn1 [Compound I-38, N-tert-butyl-3-chloro-2-(3-methylisothiazol-5-ylamino)-5H-pyrrolo[2,3-b]pyrazine-7-carboxamide]",14.9,0.64,,
"COc1ncc(Nc2cnc3[nH]cc(C(=O)NC(C)(C)C)c3n2)cn1 [Compound I-25, N-tert-butyl-2-(2-methoxypyrimidin-5-ylamino)-5H-pyrrolo[2,3-b]pyrazine-7-carboxamide]",0.213,0.0712,0.433,
"Cc1ccc(Nc2cnc3[nH]cc(C(=O)NC(C)C)c3n2)nc1 [Compound I-4, N-isopropyl-2-(5-methylpyridin-2-ylamino)-5H-pyrrolo[2,3-b]pyrazine-7-carboxamide]",0.258,0.0428,0.918,
"CC(C)(C)NC(=O)c1c[nH]c2ncc(Nc3ccc(S(C)(=O)=O)nc3)nc12 [Compound I-23, N-tert-butyl-2-(6-(methylsulfonyl)pyridin-3-ylamino)-5H-pyrrolo[2,3-b]pyrazine-7-carboxamide]",3.62,0.117,0.63,
"Cc1ccc(Nc2cnc3[nH]cc(C(=O)NC(C)(C)C)c3n2)c(C)c1 [Compound I-19, N-tert-butyl-2-(2,4-dimethylphenylamino)-5H-pyrrolo[2,3-b]pyrazine-7-carboxamide]",0.518,0.117,,
"CC(C)(C)NC(=O)c1c[nH]c2ncc(Nc3ccnc(S(C)(=O)=O)c3)nc12 [Compound I-28, N-tert-butyl-2-(2-(methylsulfonyl)pyridin-4-ylamino)-5H-pyrrolo[2,3-b]pyrazine-7-carboxamide]",0.806,0.121,,
"Cn1cc2c(n1)CCCN2c1cnc2[nH]cc(C(=O)NC(C)(C)C)c2n1 [Compound I-32, N-tert-butyl-2-(2-methyl-6,7-dihydro-2H-pyrazolo[4,3-b]pyridin-4(5H)-yl)-5H-pyrrolo[2,3-b]pyrazine-7-carboxamide]",0.275,0.0437,1.14,
"Cc1ccc(Nc2cnc3[nH]cc(C(=O)NC(C)(C)C)c3n2)c(F)c1 [Compound I-11, N-tert-butyl-2-(2-fluoro-4-methylphenylamino)-5H-pyrrolo[2,3-b]pyrazine-7-carboxamide]",1.33,0.0109,,
"CC(C)(C)NC(=O)c1c[nH]c2ncc(Nc3cncc(S(C)(=O)=O)c3)nc12 [Compound I-29, N-tert-butyl-2-(5-(methylsulfonyl)pyridin-3-ylamino)-5H-pyrrolo[2,3-b]pyrazine-7-carboxamide]",0.642,0.228,,
"CC(C)(CO)NC(=O)c1c[nH]c2ncc(Nc3cccnc3)nc12 [Compound I-26, N-(1-hydroxy-2-methylpropan-2-yl)-2-(pyridin-3-ylamino)-5H-pyrrolo[2,3-b]pyrazine-7-carboxamide]",0.216,0.0056,,
"Cc1nc2[nH]cc(C(=O)NC(C)(C)C)c2nc1Nc1cccc(S(C)(=O)=O)c1 [Compound I-35, 2-(3-Methanesulfonyl-phenylamino)-3-methyl-5H-pyrrolo[2,3-b]pyrazine-7-carboxylic acid tert-butylamide]",,2.94,,
"Cc1nc2[nH]cc(C(=O)NC(C)(C)C)c2nc1Nc1cnn(C)c1 [Compound I-34, 3-Methyl-2-(1-methyl-1H-pyrazol-4-ylamino)-5H-pyrrolo[2,3-b]pyrazine-7-carboxylic acid tert-butylamide]",2.17,,5.12,

# More lines, in order of falling IC50 [1], values ahead:
IC50 [1] [µM],"IC50 [2, 4] [µM]",IC50 [3] [µM],IC50 [2] [µM],Structure (SMILES)
0.207,0.0499,0.193,,"Cn1cc(Nc2cnc3[nH]cc(C(=O)NC(C)(C)CO)c3n2)cn1 [Compound I-17, N-(1-hydroxy-2-methylpropan-2-yl)-2-(1-methyl-1H-pyrazol-4-ylamino)-5H-pyrrolo[2,3-b]pyrazine-7-carboxamide]"
0.11,0.0137,0.0758,,"Cn1cc(Nc2cnc3[nH]cc(C(=O)NC(C)(C)C)c3n2)cn1 [Compound I-5, N-tert-butyl-2-(1-methyl-1H-pyrazol-4-ylamino)-5H-pyrrolo[2,3-b]pyrazine-7-carboxamide]"
0.0933,0.0059,0.418,,"CC(O)c1cccc(Nc2cnc3[nH]cc(C(=O)NC(C)(C)C)c3n2)c1 (centres unmarked) [Compound I-24, N-tert-butyl-2-(3-(1-hydroxyethyl)phenylamino)-5H-pyrrolo[2,3-b]pyrazine-7-carboxamide]"
0.0931,0.0155,0.343,,"Cc1cc(Nc2cnc3[nH]cc(C(=O)NC(C)(C)C)c3n2)[nH]n1 [Compound I-9, N-tert-butyl-2-(3-methyl-1H-pyrazol-5-ylamino)-5H-pyrrolo[2,3-b]pyrazine-7-carboxamide]"
0.0789,0.002,0.125,,"Cc1cc(Nc2cnc3[nH]cc(C(=O)NC(C)(C)C)c3n2)sn1 [Compound I-18, N-tert-butyl-2-(3-methylisothiazol-5-ylamino)-5H-pyrrolo[2,3-b]pyrazine-7-carboxamide]"
0.0767,0.0032,2.16,,"Cc1ccc(Nc2cnc3[nH]cc(C(=O)NC(C)(C)C)c3n2)cc1 [Compound I-12, N-tert-butyl-2-(p-tolylamino)-5H-pyrrolo[2,3-b]pyrazine-7-carboxamide]"
0.069,0.0128,0.19,,"CC(C)(C)NC(=O)c1c[nH]c2ncc(Nc3cccc(S(C)(=O)=O)c3)nc12 [Compound I-13, N-tert-butyl-2-(3-(methylsulfonyl)phenylamino)-5H-pyrrolo[2,3-b]pyrazine-7-carboxamide]"
0.0645,0.0163,,,"CC(C)(C)NC(=O)c1c[nH]c2ncc(Nc3cccnc3)nc12 [Compound I-10, N-tert-butyl-2-(pyridin-3-ylamino)-5H-pyrrolo[2,3-b]pyrazine-7-carboxamide]"
0.0377,,,0.0048,"[2H]c1c([2H])c([2H])c(Nc2cnc3[nH]cc(C(=O)NC(C)(C)C)c3n2)c([2H])c1[2H] [Compound I-37, 2-Phenylamino(D5)-5H-pyrrolo[2,3-b]pyrazine-7-carboxylic acid tert-butylamide]"
